Data: US20240335407A1, “PHARMACEUTICAL COMPOSITION AND USE THEREOF” (NEURODAWN PHARMACEUTICAL CO., LTD., priority 2021, published 2024)

Experiments:
[1] = test system: neuropathic pain induced by separate L5 spinal nerve ligation (SNL); assay: Mechanical pain threshold (MWT) in the L5 spinal nerve ligation (SNL) model of neuropathic pain, with synergy analysis (Jin Zhengjun q, CompuSyn CI); assay type: in vivo, Sprague-Dawley (SD) rats; details: Example 1, Mean ± SEM
Experimental: In this experiment, the model of neuropathic pain induced by separate L5 spinal nerve ligation (SNL) was adopted. Animals were anesthetized with 7% chloral hydrate (dosage: 420 mg/kg, intraperitoneal injection), and the limbs of rats were fixed in a prone position. The rats were placed under dissecting microscope with the back hair-cut off, then wiped and disinfected with alcohol. An incision about 2-3 cm long was cut on the right side of the dorsal spine, and the two spinal nerves L4 and L5 were exposed, the spinal nerve L5 was lightly ligated with 6-0 braided line to avoid damage to the contiguous spinal nerves. Double-layer suture was performed on the back incisions of the experimental animals, and disinfected with iodophor, then the experimental animals were gently put into a feeding cage, allowed to free access to movement, eating and drinking.
Mechanical withdrawal threshold (MWT) of all experimental animals was measured by mechanical automatic stimulated needle. The experimental animals were placed in a transparent plexiglass box with iron gauze at the bottom, and after acclimatization for 30 minutes, the vola of the hind limbs of the experimental animals were stimulated with a stimulated needle at a uniform speed, and the reaction threshold when rats rapidly retracted or shook their feet was recorded (as MWT), which was the mechanical pain threshold of the animals.
The basic mechanical pain threshold of each experimental animal was measured for 2 days […], and the basic mechanical pain threshold of experimental animals was the average of two values. […]
The L5-SNL model was prepared by selecting SD rats with appropriate weight, and the measurement of postoperative mechanical pain threshold was started at least 7 days after modeling. […] The experimental model animals were administered corresponding drugs or solvents, and the mechanical pain threshold of animals was measured at 0.5 h and 3 h after administration. […]

[2] = test system: neuropathic pain induced by separate L5 spinal nerve ligation (SNL); assay: as above; assay type: in vivo, Sprague-Dawley (SD) rats; details: Mean ± SEM
[3] = Example 1, 0.5 mg/kg intraperitoneal
[4] = Example 2, 1 mg/kg intraperitoneal
[5] = Example 2, 20 mg/kg intraperitoneal
[6] = Example 3, 3 mg/kg intraperitoneal
[7] = Example 3, 18 mg/kg intraperitoneal
[8] = Example 3, 30 mg/kg intraperitoneal
[9] = Example 4, 3 mg/kg intraperitoneal
[10] = Example 4, 9 mg/kg intraperitoneal
[11] = Example 4, 18 mg/kg intraperitoneal
[12] = Example 5, 3 mg/kg intraperitoneal
[13] = Example 5, 6 mg/kg intraperitoneal
[14] = Example 5, 9 mg/kg intraperitoneal
[15] = Example 6, 6 mg/kg intraperitoneal
[16] = Example 2, 10 mg/kg intraperitoneal
[17] = Example 3, 12 mg/kg intraperitoneal
[18] = Example 4, 6 mg/kg intraperitoneal
[19] = Example 4, 12 mg/kg intraperitoneal
[20] = Example 6, 7.5 mg/kg intraperitoneal
[21] = Example 6, 10 mg/kg intraperitoneal

In the case of CC(C)C[C@H](CN)CC(=O)O [pregabalin, (S)-3-aminomethyl-5-methylhexanoic acid], the “pain threshold at 0.5 h after administration” value (shortened to “pain threshold at 0.5 h”) ([1]; 25 mg/kg intraperitoneal) was 17.41 ± 0.58 g, the “pain threshold at 0.5 h” value [2, 3] was 15.48 ± 1.27 g and the “pain threshold at 3 h after administration” value (“pain threshold at 3 h” for short) [2, 3] was 15.54 ± 1.15 g. For the same compound, the “pain threshold at 3 h” value ([2]; Example 1, 25 mg/kg intraperitoneal) was 24.65 ± 0.34 g, the “pain threshold at 0.5 h” value [2, 4] was 15.57 ± 1.04 g and the “pain threshold at 3 h” value [2, 4] was 15.68 ± 1.32 g. For the same compound, the “pain threshold at 0.5 h” value [2, 5] was 17.04 ± 0.54 g, the “pain threshold at 3 h” value [2, 5] was 24.76 ± 0.73 g and the “pain threshold at 0.5 h” value [2, 6] was 15.19 ± 1.31 g. For the same compound, the “pain threshold at 3 h” value [2, 6] was 16.75 ± 1.14 g, the “pain threshold at 0.5 h” value [2, 7] was 16.36 ± 1.35 g and the “pain threshold at 3 h” value [2, 7] was 23.92 ± 1.30 g. For the same compound, the “pain threshold at 0.5 h” value [2, 8] was 18.05 ± 0.73 g, the “pain threshold at 3 h” value [2, 8] was 26.13 ± 0.91 g and the “pain threshold at 0.5 h” value [2, 9] was 15.24 ± 0.95 g. For the same compound, the “pain threshold at 3 h” value [2, 9] was 16.96 ± 1.22 g, the “pain threshold at 0.5 h” value [2, 10] was 15.03 ± 1.21 g and the “pain threshold at 3 h” value [2, 10] was 21.13 ± 1.13 g. The “pain threshold at 0.5 h” value [2, 11] was 16.26 ± 0.74 g, the “pain threshold at 3 h” value [2, 11] was 24.54 ± 0.56 g and the “pain threshold at 0.5 h” value [2, 12] was 15.35 ± 0.57 g. The “pain threshold at 3 h” value [2, 12] was 16.73 ± 1.15 g, the “pain threshold at 0.5 h” value [2, 13] was 15.24 ± 1.15 g and the “pain threshold at 3 h” value [2, 13] was 19.15 ± 1.21 g. For the same compound, the “pain threshold at 0.5 h” value [2, 14] was 15.78 ± 0.83 g, the “pain threshold at 3 h” value [2, 14] was 21.66 ± 0.79 g and the “pain threshold at 0.5 h” value [2, 15] was 17.39 ± 1.26 g. For the same compound, the “pain threshold at 3 h” value [2, 15] was 19.62 g, the “pain threshold at 6 h after administration” value (from here on “pain threshold at 6 h”) [2, 15] was 19.49 g and the “pain threshold at 8 h after administration” value (from here on “pain threshold at 8 h”) [2, 15] was 19.26 g. For the same compound, the “pain threshold at 0.5 h” value ([2]; Example 6, 20 mg/kg intraperitoneal) was 17.53 ± 1.33 g and the “pain threshold at 0.5 h” value ([2]; Example 6, 30 mg/kg intraperitoneal) was 18.65 ± 1.24 g.
With Nc1nc2ccc(OC(F)(F)F)cc2s1 [riluzole] the “pain threshold at 3 h” value ([1]; 0.5 mg/kg intraperitoneal, 3 h) was 14.04 ± 0.91 g, the “pain threshold at 0.5 h” value ([1]; 10 mg/kg intraperitoneal) was 21.56 ± 1.24 g and the “pain threshold at 0.5 h” value [2, 3] was 14.25 ± 0.90 g. The “pain threshold at 3 h” value ([2]; Example 1, 10 mg/kg intraperitoneal) was 19.87 ± 0.92 g, the “pain threshold at 0.5 h” value [2, 4] was 14.08 ± 0.92 g and the “pain threshold at 3 h” value [2, 4] was 14.01 ± 0.99 g. The “pain threshold at 0.5 h” value [2, 16] was 21.79 ± 1.33 g, the “pain threshold at 3 h” value [2, 16] was 20.63 ± 1.12 g and the “pain threshold at 0.5 h” value [2, 6] was 15.48 ± 0.92 g. The “pain threshold at 3 h” value [2, 6] was 15.16 ± 1.31 g, the “pain threshold at 0.5 h” value [2, 17] was 22.54 ± 1.33 g and the “pain threshold at 3 h” value [2, 17] was 21.69 ± 1.12 g. The “pain threshold at 0.5 h” value [2, 9] was 15.43 ± 0.69 g, the “pain threshold at 3 h” value [2, 9] was 15.03 ± 0.79 g and the “pain threshold at 0.5 h” value [2, 18] was 18.47 ± 0.37 g. The “pain threshold at 3 h” value [2, 18] was 17.47 ± 0.73 g, the “pain threshold at 0.5 h” value [2, 19] was 22.54 ± 1.33 g and the “pain threshold at 3 h” value [2, 19] was 21.69 ± 1.12 g. For the same compound, the “pain threshold at 0.5 h” value [2, 12] was 15.35 ± 0.58 g, the “pain threshold at 3 h” value [2, 12] was 14.98 ± 0.84 g and the “pain threshold at 0.5 h” value [2, 13] was 18.21 ± 0.47 g. For the same compound, the “pain threshold at 3 h” value [2, 13] was 17.45 ± 0.46 g, the “pain threshold at 0.5 h” value [2, 15] was 22.96 g and the “pain threshold at 3 h” value [2, 15] was 15.74 ± 0.93 g. The “pain threshold at 6 h” value [2, 15] was 15.08 ± 0.77 g, the “pain threshold at 8 h” value [2, 15] was 14.95 ± 0.81 g and the “pain threshold at 3 h” value [2, 20] was 16.44 ± 1.07 g. For the same compound, the “pain threshold at 6 h” value [2, 20] was 16.52 ± 1.06 g, the “pain threshold at 8 h” value [2, 20] was 15.49 ± 1.18 g and the “pain threshold at 3 h” value [2, 21] was 17.89 ± 1.16 g. For the same compound, the “pain threshold at 6 h” value [2, 21] was 17.46 ± 1.23 g and the “pain threshold at 8 h” value [2, 21] was 16.93 ± 1.15 g.
